Assays:
[1] = target: T1, S1P1 receptor-overexpressing Huh7 cells (Homo sapiens, UniProt P21453); assay: Immunocytochemical analysis of S1P1 receptor internalization; format: cell-based; details: immunocytochemistry
T1 construct: expressed in transfected cells
Experimental: Immunocytochemistry. Immunocytochemical analysis of S1P1 internalization and PKCδ nuclear translocation were performed as described. […] Briefly, treated cells were washed, fixed with 4% paraformaldehyde, and permeabilized with 0.1% Triton X-100. After blocking with 2% FBS, cells were incubated with rabbit anti-S1P1 or rabbit anti-PKCδ antibodies (1:200 dilution, 4° C., 24 h), followed by Alexa Fluor 488-conjugated goat anti-rabbit IgG (room temperature, 1 h). Nuclei were counterstained with a 4,6-diamidino-2-phenylindole (DAPI)-containing mounting medium (Vector Laboratories, Burlingame, Calif.).

[2] = test system: lymphocytes in peripheral blood; assay: In vivo evaluation of T-lymphocyte homing; details: CD2F1 mice, i.p., 6 h
Experimental: In vivo evaluation of T-lymphocyte homing. […] Six hours later, animals were sacrificed, and peripheral blood mononuclear cells were prepared as described. Dragun et al., Kidney Int 65, 1076-1083 (2004). Cells were stained with FITC-labeled rat anti-mouse CD3 molecular complex and PE-labeled rat anti-mouse CD45RA (4° C., in darkness, 30 min), and analyzed by flow cytometry.

Huh7 cells = assay: MTT cell viability assay, Huh7; format: cell-based; details: Homo sapiens, Huh-7, 24 h of treatment, MTT
Experimental: (§1) Cell lines, culture and reagents. The HCC cell lines Hep3B, PLC5 and Huh7, as well as primary nonmalignant human hepatocytes were used in this study. Cancer cells were cultured in Dulbecco's Modified Eagle's medium (DMEM) supplemented with 10% fetal bovine serum (FBS). Hepatocytes were maintained in defined Hepatocyte Culture Medium. […] Various polyclonal and monoclonal antibodies were used for western blotting, immunocytochemical, and flow cytometric analyses.
(§2) Cell viability assay. Cell viability was assessed by 3-(4,5-dimethylthiazol-2-yl)-2,5-diphenyl-2H-tetrazolium bromide (MTT) assays in six replicates. Cells were seeded (4,000 cells/well; 96-well plate) for 24 h and treated with test agents in 5% FBS-supplemented DMEM. After treatment, cells were incubated in medium containing 0.5 mg/ml MTT (37° C., 2 h). Reduced MTT was dissolved in DMSO (200 μL/well) and absorbances measured at 570 nm.

normal human hepatocytes = assay: MTT cell viability assay, normal hepatocytes; format: cell-based; details: 24 h
Experimental: as §1, §2

[3] = target: T1, S1P1 receptor-overexpressing Huh7 cells; assay: Cell viability in stable S1P1 receptor transfectants; format: cell-based; details: two stable S1P1 clones vs wild-type Huh7
Experimental: as §2
Overexpression of S1P1 Receptors. Huh7 or Hep3B cells were transfected with plasmids encoding S1PR1, Flag-tagged GST-π or hemagglutinin (HA)-tagged, CA-Akt. The corresponding empty vectors were used as controls. Stable clones were selected over 3 weeks by geneticin, and the expression of cloned proteins was confirmed by Western blotting.

[4] = test system: Hep3B, Huh7, and PLC5 cells; assay: ROS production by flow cytometry with DCFDA; format: cell-based; details: 1 h of treatment
Experimental: Flow cytometry. For assessment of apoptosis, treated cells were stained with Annexin V-Alexa Fluor 488 and propidium iodide according to the vendor's protocols (Molecular Probes). For caspase-3 activity, cells were incubated with the fluorogenic caspase-3 substrate (Ac-DMQD)-2-Rh110 for 20 min. ROS production was detected using the fluorescence probe 5-(and-6)-carboxy-2′,7′-dichlorodihydrofluorescein diacetate (DCFDA) as described. Hung et al., Cancer Res., 68, 1204-1212 (2008). Data were analyzed by ModFitLT V3.0 software program.

[5] = test system: PTEN, p53, Mcl-1 in Huh7 cells; assay: Western blot of signaling markers in drug-treated Huh7 cells; format: cell-based; details: 24 h
Experimental: Immunoblotting. Immunoblotting of biomarkers in cell lysates and tumor tissue homogenates was carried out according to a published procedure. Hung et al., Cancer Res., 68, 1204-1212 (2008).

[6] = Toxicity evaluation in tumor-bearing mice (body weight, blood counts, histopathology); format: in vivo, athymic nude mice; details: for mice with abdominal adhesions with varying amounts of peritonitis: of six mice per group examined histologically
Experimental: Xenograft tumor models. Ectopic tumors were established in athymic nude mice by subcutaneous injection of 1×10^6 Hep3B cells in a total volume of 0.1 ml of serum-free medium containing 50% Matrigel. Mice with established tumors were randomized to five groups (n=8) that received daily i.p. injections of OSU-2S or FTY720 at 5 or 10 mg/kg, or the vehicle. Tumor burdens were determined weekly using calipers (volume=width^2×length×0.52). Body weights were measured weekly. At the study endpoint, tumors were harvested, snap-frozen and stored at −80° C. for biomarker analysis. Blood and tissues were collected for evaluation of complete blood counts, serum chemistry and histopathology.
Orthotopic tumors were established by direct intrahepatic injection of luciferase-expressing Hep3B (Hep3B-luc) cells as described. Omar et al., Mol Pharmacol, 76, 957-968 (2009). The establishment and growth of tumors were monitored by bioluminescent imaging using the IVIS™ imaging system (Xenogen, Alameda, Calif.). Two weeks after tumor cell injection, animals with established tumors were randomized to three groups (n=3) that received daily i.p. injections of FTY720 or OSU-2S at 5 mg/kg, or vehicle for 42 days and were imaged weekly. All animal use described in this manuscript was done in accordance with protocols approved by The Ohio State University Institutional Animal Care and Use Committee.

primary CLL cells = assay: Cytotoxicity in primary CLL cells (Annexin V / propidium iodide flow cytometry); format: cell-based
Experimental: Antitumor and other effects of OSU-2S were also evaluated in Chronic Lymphoid Leukemia cells. OSU-2S cytotoxicity in primary CLL cells is measured at 24 hrs by staining for Annexin V and Propidium Iodide using Flow cytometer. The number of live cells (stained negative for both the stains) were normalized to untreated control. Fludarabine metabolite (2-Fara) was used as a control.
The effect of OSU-2S was evaluated in 3 different CLL cell lines (WROTH<THOU, and RAHUE) over a 24 hour period, as shown in FIG. 9. Time dependent OSU-2S cytotoxicity in primary CLL cells was measured by treating the cells with OSU-2S (8 μM) for indicated period of time and washed and cultured in the fresh media for 24 hr. The number of live cells stained negative for Annexin V and Propidium Iodide were measured at 24 hrs by using Flowcytometer and normalized to untreated control.
CD37 activation and OSU-2S produced enhanced cytotoxicity in CLL cells, as detected by flow cytometer at 24 hr. in CLL cells treated with CD37 antibody and cross linker or OSU-2S 8 μM or with both are stained for Annexin V and propidium iodide at 24 hr.

[7] = test system: SphK2 siRNA-transfected Huh7 cells; assay: Cell viability after siRNA-mediated knockdown of SphK2; format: cell-based; details: SphK2 siRNA vs scrambled
Experimental: as §2
Small interfering (si)RNA- or short hairpin (sh)RNA-mediated knockdown. PLC5 and Huh7 cells were transfected with the following siRNA duplexes or shRNA plasmids according to the manufacturer's protocol for the knockdown of target genes: siRNA: glutathione S-transferase (GST)-π and sphingosine kinase 2 (SphK2); shRNA constructs: pKD-PKCδ-v2. Stable clones were isolated from Huh7 cells transfected with shRNA plasmids were further subjected to stable clone isolation by geneticin. Immunoblotting was performed to confirm the knockdowns.

T1 sequence (P21453 whole entry): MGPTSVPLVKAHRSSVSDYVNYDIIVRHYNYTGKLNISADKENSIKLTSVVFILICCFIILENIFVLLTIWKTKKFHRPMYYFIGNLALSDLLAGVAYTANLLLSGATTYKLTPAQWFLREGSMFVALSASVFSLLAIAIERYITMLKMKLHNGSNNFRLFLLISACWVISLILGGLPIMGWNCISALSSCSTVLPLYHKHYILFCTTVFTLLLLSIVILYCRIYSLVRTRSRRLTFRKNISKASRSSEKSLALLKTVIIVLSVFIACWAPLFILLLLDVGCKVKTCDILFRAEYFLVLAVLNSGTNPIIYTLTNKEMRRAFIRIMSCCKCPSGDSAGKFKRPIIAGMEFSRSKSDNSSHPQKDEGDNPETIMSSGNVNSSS

CCC[C@@](N)(CO)CCc1ccc(OCCCCCC(C)C)cc1 [OSU-2S, (S)-2-amino-2-(4-[(6-methylheptyl)-oxy]phenethyl)pentan-1-ol]
S1P1 receptor internalization and clustering in the cytoplasm [1]: failed to show any appreciable effect | effect on number of T lymphocytes in peripheral blood ([2]; 5 mg/kg): modest decrease | effect on number of T lymphocytes in peripheral blood ([2]; 1 and 2 mg/kg): no appreciable effect | changes in circulating B lymphocytes [2]: no comparable changes | IC50 (Huh7 cells): 2400 nM | sensitivity of normal human hepatocytes relative to malignant cells (normal human hepatocytes): resistant | effect of S1P1 receptor overexpression on antiproliferative activity [3]: no protective effect | ROS production [4]: to a greater extent than FTY720 | effect on expression levels of PTEN, p53, or Mcl-1 [5]: neither OSU-2S nor FTY720 had an appreciable effect | mice with abdominal adhesions with varying amounts of peritonitis ([6]; 5 mg/kg): all | mice with abdominal adhesions with varying amounts of peritonitis ([6]; 10 mg/kg): all | lymphocyte levels ([6]; ectopic tumor-bearing mice at study endpoint): normal | overt toxicity and body weight ([6]; ectopic tumor-bearing mice, daily i.p. 5 or 10 mg/kg): no overt signs of toxicity and no loss of body weight | total lymphocyte counts ([6]; mice after 42 days of treatment): no decrease | tolerability (stable body weights) ([6]; orthotopic tumor-bearing mice, daily i.p., 42 days): well tolerated | time dependent cytotoxicity (primary CLL cells; 8 μM for indicated time, washed, cultured 24 hr, 3 CLL cell lines): decreased number live cells over time | live cells (negative for Annexin V and propidium iodide) (primary CLL cells; CLL cells, 24 hr, OSU-2S 8 μM and/or CD37 antibody and cross linker): about 30% | growth (live cells normalized to untreated control) (primary CLL cells; primary CLL cells, 24 hrs, OSU-2S at 8 μM): about 30% | effect of SphK2 knockdown on antiproliferative activity (sensitizing effect) [7]: not observed

Reference: patent publication US8309768B2, “FTY720-derived anticancer agents” (The Ohio State University Research Foundation, priority 2010, dated 2012)
